Counter-ions that a name gives are not always drawn.
Columns and labels:
NURR-1/RXRα = target: T1, NURR-1/RXRα (Homo sapiens, UniProt P19793); assay: Transactivation test, NURR-1-Gal4/RXRα, luciferase reporter in Cos-7 cells; type: cell-based; conditions: for Emax: COS-7, induction level relative to reference XCT0135908 at 2×10^−5 M (=100%), read-out: hNurr1_RXRaFL Emax (%); for EC50: Cos-7 cells, NURR-1-Gal4/RXRα, luciferase reporter, read-out: hNurr1_RXRaFL EC50
T1 construct: expressed in transfected cells; host or cells: Cos-7 cells

NURR-1/RXRγ = target: T2, NURR-1/RXRγ (Homo sapiens, UniProt P48443); assay: Transactivation test, NURR-1-Gal4/RXRγ, luciferase reporter in Cos-7 cells; type: cell-based; conditions: for Emax: COS-7, induction level relative to reference XCT0135908 at 2×10^−5 M (=100%), read-out: hNurr1_RXRgFL Emax (%); for EC50: Cos-7 cells, NURR-1-Gal4/RXRγ, luciferase reporter, read-out: hNurr1_RXRgFL EC50
T2 construct: expressed in transfected cells; host or cells: Cos-7 cells
T2 sequence (P48443 whole entry, the tested form may be a part): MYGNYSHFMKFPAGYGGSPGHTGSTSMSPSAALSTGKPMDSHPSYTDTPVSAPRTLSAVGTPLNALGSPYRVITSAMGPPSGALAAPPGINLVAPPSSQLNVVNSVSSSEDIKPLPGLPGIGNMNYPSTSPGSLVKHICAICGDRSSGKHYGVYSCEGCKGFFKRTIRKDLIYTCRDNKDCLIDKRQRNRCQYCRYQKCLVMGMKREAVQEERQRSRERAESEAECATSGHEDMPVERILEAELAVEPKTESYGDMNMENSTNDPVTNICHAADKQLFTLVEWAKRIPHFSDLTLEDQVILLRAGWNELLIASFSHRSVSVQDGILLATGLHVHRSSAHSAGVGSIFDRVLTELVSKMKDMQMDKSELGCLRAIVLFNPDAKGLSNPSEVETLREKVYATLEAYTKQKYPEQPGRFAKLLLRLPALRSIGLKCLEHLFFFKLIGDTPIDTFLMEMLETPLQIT
T2 sequence (P43354 whole entry partner, the tested form may be a part): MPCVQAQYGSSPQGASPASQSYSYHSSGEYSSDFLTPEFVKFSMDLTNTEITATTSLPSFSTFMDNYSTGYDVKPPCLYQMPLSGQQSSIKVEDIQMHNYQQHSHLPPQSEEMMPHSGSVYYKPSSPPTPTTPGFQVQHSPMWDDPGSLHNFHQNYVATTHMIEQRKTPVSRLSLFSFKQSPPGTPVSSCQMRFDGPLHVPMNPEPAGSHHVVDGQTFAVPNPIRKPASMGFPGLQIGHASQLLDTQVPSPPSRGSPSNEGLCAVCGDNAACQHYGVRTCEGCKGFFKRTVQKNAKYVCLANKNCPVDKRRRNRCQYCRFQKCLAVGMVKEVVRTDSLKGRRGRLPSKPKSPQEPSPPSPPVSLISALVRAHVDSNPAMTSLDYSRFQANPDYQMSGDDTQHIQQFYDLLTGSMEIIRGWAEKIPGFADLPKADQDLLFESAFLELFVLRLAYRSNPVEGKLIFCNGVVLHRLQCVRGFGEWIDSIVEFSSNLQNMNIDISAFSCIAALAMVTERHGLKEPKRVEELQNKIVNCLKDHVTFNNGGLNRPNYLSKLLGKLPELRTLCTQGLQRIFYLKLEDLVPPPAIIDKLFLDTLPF
T2 sequence (P04386 1-147 partner limits assumed): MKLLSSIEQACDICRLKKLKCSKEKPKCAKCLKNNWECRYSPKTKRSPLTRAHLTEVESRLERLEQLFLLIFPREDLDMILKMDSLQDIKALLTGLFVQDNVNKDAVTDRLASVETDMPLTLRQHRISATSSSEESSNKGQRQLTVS

T1 sequence (P19793 whole entry, the tested form may be a part): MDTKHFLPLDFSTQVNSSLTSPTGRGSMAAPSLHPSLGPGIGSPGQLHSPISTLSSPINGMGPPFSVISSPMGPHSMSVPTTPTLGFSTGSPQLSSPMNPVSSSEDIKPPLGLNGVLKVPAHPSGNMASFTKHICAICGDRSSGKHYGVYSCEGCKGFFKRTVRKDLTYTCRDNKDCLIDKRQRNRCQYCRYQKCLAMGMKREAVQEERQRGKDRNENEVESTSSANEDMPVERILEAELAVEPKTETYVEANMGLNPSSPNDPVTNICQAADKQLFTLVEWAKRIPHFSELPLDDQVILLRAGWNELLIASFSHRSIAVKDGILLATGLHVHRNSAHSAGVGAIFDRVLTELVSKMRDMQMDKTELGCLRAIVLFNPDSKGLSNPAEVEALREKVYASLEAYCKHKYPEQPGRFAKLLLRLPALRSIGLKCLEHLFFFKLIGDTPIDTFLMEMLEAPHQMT
T1 sequence (P43354 whole entry partner, the tested form may be a part): as the sequence (P43354 whole entry partner, the tested form may be a part) above
T1 sequence (P04386 1-147 partner limits assumed): as the sequence (P04386 1-147 partner limits assumed) above

| Structure (SMILES) | melting point | Emax (NURR-1/RXRα) | EC50 (NURR-1/RXRα) | Emax (NURR-1/RXRγ) | EC50 (NURR-1/RXRγ) |
| --- | --- | --- | --- | --- | --- |
| CC(C)c1ccc2c(c1)CC(C)(C)CN2c1cccc(N2CC(C(=O)O)C2)c1 (as salt: ammonium) [Example 245, tert-butylammonium 1-[3-(6-isopropyl-3,3-dimethyl-2,4-dihydroquinolin-1-yl)phenyl]azetidine-3-carboxylate] | 165 to 177 °C |  |  |  |  |
| O=C(O)C1CN(c2cccc(N3CCOc4cc(C(F)(F)F)ncc43)c2)C1 (as salt: sodium) [Example 240, sodium 1-[3-[7-(trifluoromethyl)-2,3-dihydropurido[4,3][1,4]oxazin-4-yl]phenyl]azetidine-3-carboxylate] | 49 to 63 °C |  |  |  |  |
| CC1(C)Oc2cc(C#N)ccc2N(c2cccc(N3CC(C(=O)O)C3)c2)C1=O (as salt: ammonium) [Example 254, tert-butylammonium 1-[3-(7-cyano-2,2-dimethyl-3-oxo-1,4-benzoxazin-4-yl)phenyl]azetidine-3-carboxylate] | 204 to 211 °C |  |  |  |  |
| CC1(C)CC(c2cccc(N3CC(C(=O)O)C3)c2)c2ccc(C(F)(F)F)cc2O1 (stereo not drawn) (as salt: ammonium) [Example 270, tert-butylammonium 1-[3-[2,2-dimethyl-7-(trifluoromethyl)chroman-4-yl]phenyl]azetidine-3-carboxylate] | 116 to 122 °C |  |  |  |  |
| Cc1cn(-c2cccc(N3CC(C(=O)NCCO)C3)c2)c2ccc(C(F)(F)F)cc12 [Example 168] |  | 102% | < 0.001 µM | 106% | < 0.001 µM |
| O=C(O)C1CN(c2cccc(-c3ccc(Cl)c(C(F)(F)F)n3)c2)C1 [Example 76, 1-[3-[5-chloro-6-(trifluromethyl)-2-pyridyl]phenyl]azetidine-3-carboxylic acid] |  | 71% | 0.741 µM | 51% | 2.56 µM |
| Cc1cc(-c2cccc(C(F)(F)F)c2F)cc(N2CC(C(=O)O)C2)c1 [Example 23, 1-[3-[2-fluoro-3-(trifluoromethyl)phenyl]-5-methylphenyl]azetidine-3-carboxylic acid] |  | 111% | 0.013 µM | 107% | 0.03 µM |
| CC1(C)CN(c2cccc(N3CC(C(=O)O)C3)c2)c2ccc(C(F)(F)F)cc2O1 [Example 112, 1-[3-[2,2-dimethyl-7-(trifluoromethyl)-3H-1,4,benzoxazin-4-yl]phenyl]azetidine-3-carboxylic acid] |  | 125% | 0.003 µM | 136% | 0.009 µM |
| O=C(O)C1CN(c2cccc(-c3cc(OC(F)(F)F)cc4cccnc34)c2)C1 [Example 83, 1-[3-[6-(trifluoromethoxy)-8-quinolyl]phenyl]azetidine-3-carboxylic acid] |  | 67% | 0.282 µM | 68% | 0.596 µM |
| Cc1cn(-c2cc(N3CC(C(=O)O)C3)cc(C(F)(F)F)c2)c2ccc(C(F)(F)F)cc12 [Example 43, 1-[3-[3-methyl-5-(trifluoromethyl)indol-1-yl]-5-(trifluoromethyl)phenyl]azetidine-3-carboxylic acid] |  | 84% | 0.006 µM | 90% | 0.009 µM |
| CCC(C)Oc1ccc(C(F)(F)F)cc1-c1cccc(N2CC(C(=O)O)C2)c1 (stereo not drawn) [Example 105, 1-[3-[2-sec-butoxy-5-(trifluoromethyl)phenyl]phenyl]azetidine-3-carboxylic acid] |  | 56% | 0.01 µM | 55% | 0.019 µM |
| CCC(CC)COc1ccc(C(F)(F)F)cc1-c1cccc(N2CC(C(=O)O)C2)c1 [Example 103, 1-[3-[2-(2-ethylbutoxy)-5-(trifluoromethyl)phenyl]phenyl]azetidine-3-carboxylic acid] |  | 62% | 0.016 µM | 58% | 0.017 µM |
| Cc1cn(-c2cc(OC(F)(F)F)cc(N3CC(C(=O)O)C3)c2)c2ccc(C(F)(F)F)cc12 [Example 52, 1-[3-[3-methyl-5-(trifluoromethyl)indol-1-yl]-5-(trifluoromethoxy)phenyl]azetidine-3-carboxylic acid] |  | 86% | 0.083 µM | 117% | 0.117 µM |
| O=C(O)C1CN(c2cccc(-c3cccc(-c4ccccc4)n3)c2)C1 [Example 40, 1-[3-(6-phenyl-2-pyridyl)phenyl]azetidine-3-carboxylic acid] |  | 80% | 0.557 µM | 62% | 0.88 µM |
| O=C(O)C1CN(c2cccc(-c3cc(C(F)(F)F)ccc3OCc3ccccc3Cl)c2)C1 [Example 97, 1-[3-[2-[(2-chlorophenyl)methyoxy]-5-(trifluoromethyl)phenyl]phenyl]azetidine-3-carboxylic acid] |  | 49% | 0.012 µM | 38% | 0.013 µM |
| Cn1ccc(COc2ccc(C(F)(F)F)cc2-c2cccc(N3CC(C(=O)O)C3)c2)n1 [Example 108, 1-[3-[2-[(1-methylpyrazol-3-yl)methoxy]-5-(trifluoromethyl)phenyl]phenyl]azetidine-3-carboxylic acid] |  | 53% | 0.082 µM | 54% | 0.112 µM |
| Cc1cc(-c2cccc3c2OC(F)(F)O3)cc(N2CC(C(=O)O)C2)c1 [Example 25, 1-[3-(2,2-difluoro-1,3-benzodioxal-4-yl)-5-methylphenyl]azetidine-3-carboxylic acid] |  | 99% | 0.019 µM | 109% | 0.05 µM |
| O=C(O)C1CN(c2cccc(N3C(=O)C4(CCC4)Oc4cc(C(F)(F)F)ccc43)c2)C1 [Example 121, 1-[3-[3-oxo-7-(trifluromethyl)spiro[3H1,4-benzoxazine-2,1′-cyclobutane]-4yl]phenyl]azetidine-3-carboxylic acid] |  | 122% | 0.012 µM | 133% | 0.013 µM |
| Cc1cn(-c2cccc(N3CC(C(=O)NC(CO)CO)C3)c2)c2ccc(C(F)(F)F)cc12 [Example 161, N-[2-hydroxy-1-(hydroxymethyl)ethyl]-1-[3-[3-methyl-5-(trifluoromethyl)indol-1yl]phenyl]azetidine-3-carboxamide] |  | 113% | 0.009 µM | 103% | 0.023 µM |

Further lines, results first:

| melting point | Emax (NURR-1/RXRα) | EC50 (NURR-1/RXRα) | Emax (NURR-1/RXRγ) | EC50 (NURR-1/RXRγ) | Structure (SMILES) |
| --- | --- | --- | --- | --- | --- |
| 140 °C |  |  |  |  | CC1(C)CN(c2cccc(N3CC(C(=O)O)C3)c2)c2ccc(Br)cc2O1 (as salt: sodium) [Example 222, sodium 1-[3-(7-bromo-2,2-dimethyl-3H-1,4-benzoxazin-4-yl)phenyl]azetidine-3-carbxoylate] |
| 88 to 104 °C |  |  |  |  | CC1(C)Oc2cc(C#N)ccc2N(c2cccc(N3CC(C(=O)O)C3)c2)C1=O [Example 253, 1-[3-(7-cyano-2,2-dimethyl-3-oxo-1,4-benzoxazin-4-yl)phenyl]azetidine-3-carboxylic acid] |
| 109 °C |  |  |  |  | CCCc1ccc(C(C)C)cc1-c1cccc(N2CC(C(=O)O)C2)c1 (as salt: salt) [Example 195, piperazin-1-ium-1-[3-(5-isopropyl-2-propylphenyl)phenyl]azetidine-3-carboxylate] |
|  | 55% | 0.118 µM | 41% | 0.06 µM | CC(C)C(Oc1ccc(C(F)(F)F)cc1-c1cccc(N2CC(C(=O)O)C2)c1)C(C)C [Example 101, 1-[3-[2-(1-isopropyl-2-methlypropoxy)-5-(trifluoromethyl)phenyl]phenyl]azetidine-3-carboxylic acid] |
|  | 91% | 0.017 µM | 106% | 0.029 µM | COc1cc(N2CC(C(=O)O)C2)cc(-n2cc(C)c3cc(C(F)(F)F)ccc32)c1 [Example 51, 1-[3-methoxy-5-[3-methyl-5-(trifluoromethyl)indol-1-yl]phenyl]azetidine-3-carboxylic acid] |
|  | 103% | 0.023 µM | 89% | 0.059 µM | O=C(O)C1CN(c2cccc(N3CC4(CCCC4)c4cc(Cl)ccc43)c2)C1 [Example 257, tert-butylammonium 1-[3-(5′-chlorospiro[cyclopentane-1,3′-indolin]-1′-yl)phenyl]azetidine-3-carboxyate] |
|  | 119% | 0.002 µM | 103% | 0.004 µM | Cc1cc(-c2cc(Cl)cc(C(F)(F)F)c2)cc(N2CC(C(=O)O)C2)c1 [Example 16, 1-[3-[3-chloro-5-(trifluoromethyl)phenyl]-5-methylphenyl]azetidine-3-carboxylic acid] |
|  | 67% | 0.006 µM | 57% | 0.007 µM | O=C(O)C1CN(c2cccc(-c3cc(C(F)(F)F)ccc3OCc3ccccc3)c2)C1 [Example 90, 1-[3-[2-benzyloxy-5-(trifluoromethyl)phenyl]phenyl]azetidine-3-carboxylic acid] |
|  | 103% | 0.019 µM | 97% | 0.052 µM | CC1(C)CN(c2cccc(N3CC(C(=O)NCC(O)CO)C3)c2)c2ccc(C(F)(F)F)cc2O1 (stereo not drawn) [Example 277, N-(2,3-dihydroxypropyl)-1-[3-[2,2-dimethyl-7-(trifluoromethyl)-3H-1,4-benzoxazin-4-yl]phenyl]azetidine-3-carboxamide] |
|  | 107% | 0.005 µM | 107% | 0.012 µM | Cc1cc(-c2cc(F)cc(C(F)(F)F)c2)cc(N2CC(C(=O)O)C2)c1 [Example 8, 1-[3-[3-fluoro-5-(trifluoromethyl)phenyl]-5-methluphenyl]azetidine-3-carboxylic acid] |
|  | 69% | > 5 µM | 64% | > 5 µM | O=C(O)C1CN(c2cccc(-c3cncc(C(F)(F)F)c3)c2)C1 [Example 34, 1-[3-[5-(trifluoromethyl)3-pyridyl]phenyl]azetidine-3-carboxylic acid] |
